ChEMBL document CHEMBL1201862, “PubChem BioAssay data set” (2004)
The source made the active and inactive calls.

How the values were obtained:
[1] = target: DNA dC->dU-editing enzyme APOBEC-3G (Homo sapiens, UniProt Q9HC16); assay: Dose Response confirmation of small molecule APOBEC3G DNA Deaminase Inhibitors via a fluorescence-based single-stranded DNA deaminase assay. [Related pubchem assays (depositor defined):AID493012, AID493028]; type: functional
[2] = NIH-3T3 fibroblast cytotoxicity, dose response, cytotoxicity control, cell-based, fluorescence, Alamar Blue, secondary assay (AID 2327); type: functional;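 also: NIH-3T3 mouse fibroblasts cultured with fluconazole at 8 µg/mL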
[3] = C. albicans growth with fluconazole, confirmation, fluorescence, retest (AID 2467); type: functional, cell-based
H9c2 = assay: cells; type: functional, cell-based; details: Rattus norvegicus, H9c2, Myocardium;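 also: confirmatory concentration-response retest of ultra-high-throughput screening hits for modulation of myocardial damage; cell death induced by hydrogen peroxide oxidative stress; compound pretreatment for 60 min then peroxide exposure for 2 h; potency is for protecting the cells against peroxide damage rather than for killing them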
[4] = inhibitors of intracellular T. cruzi replication, confirmation, NIH3T3 host cells, beta-gal luminescence (AID 2044); type: functional, cell-based;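 also: intracellular parasites grown in NIH/3T3 mouse fibroblasts as host cells; luminescent beta-galactosidase reporter signal from transgenic T. cruzi replicating inside host cells; inhibitors lower the luminescence signal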
[5] = cytotoxicity toward NIH3T3 fibroblasts, dose response, counter-screen, cell-based, ATP luminescence, mouse fibroblasts (AID 2010); type: functional;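 also: cells exposed to compound for about 90 hours before reading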
Nonstructural protein 1 = Nonstructural protein 1 (Influenza A virus, UniProt Q194T2); type: functional, Influenza A virus (A/California/07/2009(H1N1))
Chain of Nonstructural protein 1 (Q194T2 whole entry, the tested form may be a part): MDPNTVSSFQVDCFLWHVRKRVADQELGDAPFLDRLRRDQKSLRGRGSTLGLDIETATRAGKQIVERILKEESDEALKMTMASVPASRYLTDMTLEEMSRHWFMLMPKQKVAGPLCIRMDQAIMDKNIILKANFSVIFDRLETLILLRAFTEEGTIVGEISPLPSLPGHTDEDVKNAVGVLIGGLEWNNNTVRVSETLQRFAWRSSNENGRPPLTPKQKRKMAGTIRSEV

[6] = inhibitors of HIV Env-driven cell fusion, dose response, cherry-pick (AID 652057); type: functional, cell-based
[7] = ZM109 Env clade C HIV-1 fusion inhibitors, dose response, HeLa effector, CEM target cells, luciferase, cherry-pick (AID 652058); type: functional, cell-based
[8] = off-target signal loss in HeLa-CEM21 co-culture – HeLa F-luc CTL cells, cherry-picked, counter-screen for HIV-1 Env fusion inhibitor project, dose response (AID 652040); type: functional, cell-based;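 also: potency for signal decrease marking cytotoxic or nonspecific inhibition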
[9] = target: Heat shock protein HSP 90-alpha (Homo sapiens, UniProt P07900); type: functional, organism-based
[10] = inhibitors of clade B AD8 Env fusion, dose response, cell-based, cherry-pick (AID 652062); type: functional;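 also: luciferase signal from cell-cell fusion driven by HIV-1 clade B AD8 Env; potency is for inhibitors of fusion seen as a drop in luminescence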
cells [11] = type: functional, cell-based
cells [12] = type: functional, cell-based; remark: listed apart in the source
[13] = tested on: Streptococcus sp. 'group A'; assay: growth inhibition of control SK(-) GAS strain, dose response, counter-screen for streptokinase expression inhibitor project, luminescence, kanamycin, BacTiterGlo, confirmation (AID 1900); type: functional, organism-based
Streptokinase A = target: T1, Streptokinase A (Streptococcus pyogenes serotype M1, UniProt P10520); assay: S. pyogenes streptokinase expression inhibitors, potency, dose response, plasminogen activation absorbance, OD405 (AID 1914); type: functional, Streptococcus pyogenes M1 GAS;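 also: secreted streptokinase activity via plasminogen activation per viability signal from cell pellet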
T1 sequence (P10520 whole entry): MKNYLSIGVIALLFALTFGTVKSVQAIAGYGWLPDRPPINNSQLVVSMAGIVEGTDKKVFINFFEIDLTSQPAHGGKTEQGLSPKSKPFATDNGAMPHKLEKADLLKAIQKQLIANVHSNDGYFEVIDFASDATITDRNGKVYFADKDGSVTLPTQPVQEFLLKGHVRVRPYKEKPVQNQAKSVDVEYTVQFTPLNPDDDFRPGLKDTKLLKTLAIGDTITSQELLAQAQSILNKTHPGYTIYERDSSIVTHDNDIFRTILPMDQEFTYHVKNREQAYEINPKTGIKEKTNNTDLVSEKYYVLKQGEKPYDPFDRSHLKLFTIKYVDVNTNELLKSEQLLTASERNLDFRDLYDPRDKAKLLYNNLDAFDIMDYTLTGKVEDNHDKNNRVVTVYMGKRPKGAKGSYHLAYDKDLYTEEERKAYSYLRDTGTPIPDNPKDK

Streptococcus = assay: Group A Streptococcus viability loss, dose response, counter-screen for streptokinase expression inhibitor project, luminescence, BacTiterGlo (AID 1915); type: functional, organism-based;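 also: potency for reduction of bacterial viability or growth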
[14] = target: T2, Ubiquitin-conjugating enzyme E2 N (Homo sapiens, UniProt P61088); type: functional;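 also: Dose-response confirmation in a TR-FRET assay detecting UBC13-driven polyubiquitin chain formation, inhibition measured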
T2 sequence (P61088 whole entry): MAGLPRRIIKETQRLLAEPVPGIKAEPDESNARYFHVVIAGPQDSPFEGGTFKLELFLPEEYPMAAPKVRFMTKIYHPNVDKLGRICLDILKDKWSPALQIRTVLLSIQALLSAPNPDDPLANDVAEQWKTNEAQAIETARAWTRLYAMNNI

Chain of DNA dC->dU-editing enzyme APOBEC-3G (Q9HC16 whole entry): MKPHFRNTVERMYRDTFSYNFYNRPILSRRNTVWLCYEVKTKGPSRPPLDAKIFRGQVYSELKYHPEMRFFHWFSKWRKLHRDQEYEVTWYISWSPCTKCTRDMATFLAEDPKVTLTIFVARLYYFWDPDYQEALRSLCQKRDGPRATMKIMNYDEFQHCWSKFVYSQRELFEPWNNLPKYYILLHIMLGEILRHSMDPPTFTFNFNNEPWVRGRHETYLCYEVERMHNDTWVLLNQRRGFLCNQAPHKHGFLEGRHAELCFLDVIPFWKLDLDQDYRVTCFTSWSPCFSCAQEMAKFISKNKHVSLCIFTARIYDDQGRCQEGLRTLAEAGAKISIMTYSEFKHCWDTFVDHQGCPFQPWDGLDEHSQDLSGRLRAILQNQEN

With COc1ccc(CC(=S)N2CCOCC2)cc1 the IC50 [1] was 46.1 µM (active).
With Cc1ccc(Sc2ncccc2C(=O)NCc2cc([N+](=O)[O-])ccc2O)c(C)c1 the EC50 [2] was > 150 µM (inactive) and the EC50 [3] was 1.73 µM (active).
With O=C(CCc1nc(O)c2ccccc2n1)Nc1ccc(N2CCCCC2)cc1 the IC50 (H9c2) was > 79 µM (inactive).
In the case of OCc1ccnc2c(O)cccc12, the EC50 [2] is reported as 79.8 µM (active), the EC50 [3] is reported as > 38 µM (not active) and the EC50 [4] is reported as 3.36 µM (active). The EC50 [5] was > 30 µM (not active) and the IC50 (Nonstructural protein 1) was 10.2 µM (active).
With COc1ccccc1CN1C(=O)CN(C2CCCCCC2)C(=O)C1c1ccc(F)cc1 (stereo unspecified) the AC50 [6] was 30.9 µM (active), the AC50 [7] was 20.9 µM (active) and the AC50 [8] was 60.9 µM (active).
For COc1ccc2c(c1)OC[C@H]1[C@H]2N2C(=O)c3cc(Br)ccc3NC(=O)[C@@]2(C)[C@H]1c1ccccc1, the AC50 [9] was 0.837 µM (active).
In the case of CN(C(=O)Cn1nc(C(=O)O)c2ccccc2c1=O)C1(C#N)CCCCC1, the IC50 (H9c2) is reported as > 79 µM (inactive).
For Cc1noc(NC(=O)c2ccc(Cl)c(Cl)c2)c1Cl, the EC50 [2] was > 150 µM (inactive) and the EC50 [3] was 0.591 µM (active).
With COc1ccc(N2C(=O)NC(=O)/C(=C(/C)NCCCn3ccnc3)C2=O)cc1 the AC50 [6] was 2.49 µM (active), the AC50 [7] was 4.33 µM (active) and the AC50 [8] was 19.5 µM (active). The AC50 [10] was 6.76 µM (active).
In the case of CCCCN=C(S)Nc1ccc2c[nH]nc2c1, the EC50 (cells [11]) is reported as > 350 µM (not active) and the EC50 (cells [12]) is reported as > 350 µM (not active).
For CC(=O)c1ccc(NC(=O)Nc2cccc3ccccc23)cc1, the EC50 [2] was 19.1 µM (inconclusive) and the EC50 [3] was > 38 µM (not active).
With COC(=O)c1ccccc1NC(=O)c1nc2nc(C)cc(C)n2n1 the IC50 (H9c2) was > 79 µM (inactive).
In the case of O=C(NNC(=S)NC(=O)c1ccccc1)c1ccc([N+](=O)[O-])cc1, the EC50 [2] is reported as > 160 µM (inactive), the EC50 [13] is reported as 4.22 µM (active) and the EC50 (Streptokinase A) is reported as > 150 µM (not active). The EC50 [3] was 1.46 µM (active) and the EC50 (Streptococcus) was 15.5 µM (active).
For NC(=O)c1nsc(C(=O)N(c2cccc(F)c2)C(C(=O)NCC2CCCO2)c2c[nH]c3ccccc23)c1N (stereo unspecified), the IC50 [14] was > 20 µM (inactive).
For O=C(COC(=O)c1ccc([N+](=O)[O-])o1)Nc1cccc(S(=O)(=O)N2CCCCC2)c1, the IC50 (H9c2) was > 79 µM (inactive).
In the case of Cc1cc2c3c(c1)C1(SCC(=O)N1c1ccc(F)cc1)C(=O)N3C(C)(C)CC2C (stereo unspecified), the AC50 [6] is reported as 3.4 µM (active), the AC50 [8] is reported as > 32 µM (inactive) and the AC50 [10] is reported as 9.73 µM (active).
For O=S1(=O)CC(O)C(N=Nc2c(O)n(Cc3ccccc3)c3ccccc23)C1 (stereo unspecified), the IC50 [14] was > 20 µM (inactive).
